Results: patent US20220026414A1, “CELL-BASED BIOIDENTITY TEST FOR INSULIN” (Merck Sharp & Dohme Corp., priority 2018, published 2022)

Test system: human G6PC promoter luciferase reporter in H4IIE rat hepatoma cells
Test: H4IIE G6P-Luc reporter assay (luciferase under control of the G6PC promoter, clone C17-2)
Assay type: cell-based
Settings: for Geometric mean of measured relative potency: pre-qualification study
Excerpt: The H4IIE G6P-Luc C17-2 stable cell line was generated by stably expressing Luciferase reporter gene under the control of G6PC promoter via lentivirus technology. Briefly, the human G6PC promoter −1227/+57 sequence (SEQ ID NO: 1) was synthesized and subcloned into pLenti-NFAT-Luc vector to replace NFAT promoter. Lentivirus was generated comprising the construct and H4IIE parental cells were transduced with the lentivirus and screened with the selection antibiotic Hygromycin B. The resulting stable pool cells were validated by quantitative polymerase chain reaction (qPCR) and luciferase assay. The initial work of generating a H4IIE G6P-Luc stable cell line was outsourced to GenScript, Piscataway, N.J. USA. The stable cell pool was re-cloned in-house with limiting dilutions to identify additional clones. H4IIE_G6P-Luc C17-2 is a single clone stable cell line selected for its high assay window (difference in fluorescence detected in a sample containing 1 nM insulin versus fluorescence detected in a sample containing no insulin) and fast growth rate.
The H4IIE_G6P-Luc_C17-2 cells were cultured in Dulbecco's Modified Eagle's medium (DMEM), supplemented with 10% fetal bovine serum (FBS), 1× penicillin-streptomycin, and 0.3 mg/mL Hygromycin B. […] 25 μL insulin titration was aliquoted into the wells of a solid white 96-well tissue-culture treated assay plate. […] Afterwards, […] of ONE-GLO luciferase regent was added to the assay plate. After 10 minutes incubation at room temperature, luminescence signal was read on the EnVision plate reader (Perkin Elmer, Waltham, Mass. USA).

Substance | inhibition of luciferase reporter expression (clone C17-2, 7-hour treatment (FIG. 2A)) | inhibition of luciferase expression (clone C17-2, lower amounts of FBS in assay medium (FIG. 2C)) | inhibition of luciferase reporter expression (clone C17-2, overnight treatment (17-hours) (FIG. 2A)) | dose response curve (clone C17-2 after 29 cell passages (P29) (FIG. 2D)) | Geometric mean of measured relative potency (target relative potency 50% of reference material, N=12) | Geometric mean of measured relative potency (target relative potency 71% of reference material, N=12) | Geometric mean of measured relative potency (target relative potency 100% of reference material, N=24) | Geometric mean of measured relative potency (target relative potency 141% of reference material, N=12) | Geometric mean of measured relative potency (target relative potency 200% of reference material, N=12) | inhibition of luciferase reporter expression (top two clones (C17, C58), overnight treatment compared with seven-hour treatment (FIG. 1C))
Insulin glargine | mild inhibition | Less inhibition of luciferase expression | robust inhibition | well-formed dose response curve | 51 | 68 | 103 | 132 | 196 | –
recombinant human insulin: NOVOLIN (recombinant human insulin) purchased from Novo Nordisk | – | – | – | – | – | – | – | – | – | significantly better inhibition
